# Source: ChEMBL document CHEMBL1158051, “Russujaponols A-F, illudoid sesquiterpenes from the fruiting body of Russula japonica” (2006)
# How the values were obtained:
# [1] = tested on: HT-1080; test: Inhibition of invasion of human HT1080 cells into Matrigel at 0.17 uM; type: functional
# [2] = tested on: HT-1080; test: Inhibition of invasion of human HT1080 cells into Matrigel at 3.73 uM; type: functional
SMILES,inhibition at 0.17 µM [1],inhibition at 3.73 µM [2]
COc1cccc2c1C(=O)c1c(O)c3c(c(O)c1C2=O)C[C@@](O)(C(=O)CO)C[C@@H]3O[C@H]1C[C@H](N)[C@H](O)[C@H](C)O1 [DOXORUBICIN],52%,
C[C@H]1C(=O)[C@@H]2C[C@](C)(CO)C[C@]2(O)[C@@]2(C)CC[C@@]12O [RUSSUJAPONOL A],,63%
